According to ChEMBL document CHEMBL1201862, “PubChem BioAssay data set” (2004):
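These data come from cells grown in 96-well plates and exposed to compound for 48 hours at five concentrations. GI50 is the concentration that inhibits growth by half.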 Activity calls are given as the source filed them. Cut-off read from the data, not from the text of the source: active = GI50 up to about 1.1 µM and inactive = higher.

Columns and labels:
Experiment in all cases: inhibition of tumour cell growth, NCI panel, 48 h
[1] = tested on: M14
[2] = tested on: SNB-75
[3] = tested on: KM-20L2
[4] = tested on: NCI-H226
[5] = tested on: SNB-78
[6] = tested on: OVCAR-3
[7] = tested on: DLD-1
[8] = tested on: SF-295
[9] = tested on: HOP-18
[10] = tested on: EKVX
[11] = tested on: CCRF-CEM
[12] = tested on: LOX IMVI
[13] = tested on: RPMI-8226
[14] = tested on: HL-60
[15] = tested on: SN12C
[16] = tested on: OVCAR-4
[17] = tested on: SK-MEL-5
[18] = tested on: SK-OV-3
[19] = tested on: HCT-15
[20] = tested on: OVCAR-8
[21] = tested on: IGROV-1
[22] = tested on: UACC-62
[23] = tested on: OVCAR-5
[24] = tested on: SW-620
[25] = tested on: A549
[26] = tested on: UACC-257
[27] = tested on: COLO 205
[28] = tested on: HCT-116
[29] = tested on: NCI-H460
[30] = tested on: SF-268
[31] = tested on: SF-539
[32] = tested on: RXF 631
[33] = tested on: RXF 393
[34] = tested on: CAKI-1
[35] = tested on: SR
[36] = tested on: HOP-62
[37] = tested on: HT-29
[38] = tested on: K562
[39] = tested on: U-251
[40] = tested on: NCI-H23
[41] = tested on: ACHN
[42] = tested on: M19-MEL
[43] = tested on: UO-31
[44] = tested on: NCI-H522
[45] = tested on: SK-MEL-2
[46] = tested on: TK-10
[47] = tested on: LXFL 529
[48] = tested on: HCC 2998
[49] = tested on: SNB-19
[50] = tested on: Malme-3M
[51] = tested on: DMS-273
[52] = tested on: XF498
[53] = tested on: MOLT-4
[54] = tested on: KM12
[55] = tested on: SK-MEL-28
[56] = tested on: HOP-92
[57] = tested on: A498
[58] = tested on: 786-0
[59] = tested on: DMS-114

Measured: GI50

COc1ccc2c(c1)O[C@H]1c3ccc(O)cc3OC[C@@H]21
inactive: [1] 19.2 µM | [2] 11.2 µM | [3] 31.6 µM | [4] 25.1 µM | [5] 29.2 µM | [6] 29.2 µM | [7] 34.8 µM | [8] 35.2 µM | [9] 93.5 µM | [10] 34 µM | [11] 19.2 µM | [12] 13 µM | [13] 25.7 µM | [14] 18.1 µM | [15] 38.8 µM | [16] 34.6 µM | [17] 17.3 µM | [18] 39.5 µM | [20] 36 µM | [21] 17.5 µM | [22] 14.3 µM | [23] 48.6 µM | [24] 33 µM | [25] 28.6 µM | [26] 21.8 µM | [27] 24.1 µM | [28] 27.6 µM | [29] 35.1 µM | [30] 28.1 µM | [31] 20.7 µM | [32] 31.8 µM | [33] 19.3 µM | [34] 24.1 µM | [35] 14.3 µM | [36] 45.5 µM | [37] 34.4 µM | [38] 30.1 µM | [39] 27.9 µM | [40] 26 µM | [41] 27.2 µM | [42] 18 µM | [43] 20 µM | [44] 22.7 µM | [45] 26.5 µM | [46] 35.3 µM | [47] 25.4 µM | [48] 22.9 µM | [49] 68.1 µM | [50] 34.8 µM | [51] 30.9 µM | [52] 20.5 µM | [53] 19.8 µM
34.1 µM: [19]

COc1cccc(/C=C/C(=O)c2sc(C(N)=S)nc2C)c1O
inactive: [1] > 77.4 µM | [54] > 62.2 µM | [2] > 100 µM | [3] > 100 µM | [4] > 100 µM | [5] > 100 µM | [6] > 60.3 µM | [7] 28.3 µM | [8] > 94.6 µM | [55] > 100 µM | [9] > 41.5 µM | [10] > 100 µM | [11] 21.4 µM | [12] 22.4 µM | [13] 20.5 µM | [14] 22.2 µM | [15] > 100 µM | [16] > 72.8 µM | [17] > 100 µM | [18] > 100 µM | [20] > 96.2 µM | [21] > 61.5 µM | [22] > 100 µM | [23] > 100 µM | [24] 21.2 µM | [25] > 100 µM | [26] > 100 µM | [27] > 68.2 µM | [28] 38.5 µM | [29] > 76.4 µM | [30] > 86.3 µM | [31] 52.7 µM | [56] > 100 µM | [32] 31.1 µM | [33] > 74.3 µM | [34] > 100 µM | [35] 12.5 µM | [36] > 100 µM | [57] > 100 µM | [37] > 100 µM | [38] 42.4 µM | [39] 28.8 µM | [40] 68.1 µM | [41] > 100 µM | [42] 34.4 µM | [43] 56.4 µM | [44] > 48.3 µM | [58] 34.8 µM | [45] > 100 µM | [46] > 100 µM | [59] 50.6 µM | [47] 14.3 µM | [48] 75.5 µM | [49] > 100 µM | [50] > 100 µM | [51] 28.6 µM | [52] > 100 µM | [53] 25.1 µM
26.1 µM: [19]
